Reference: patent US20260200923A1, “HETEROCYCLIC COMPOUNDS TARGETING THE NUDT5 PROTEIN” (Oxford University Innovation Limited, priority 2022, published 2026)

Legend:
Assay type in all cases: cell-based
NUDT5-CRBN interaction = biological target: T1, NUDT5-CRBN interaction (Homo sapiens, UniProt Q96SW2+Q9UKK9); experiment: NanoBRET ternary complex formation (protein-protein interaction) assay; conditions: HEK293 cells, 4 h
T1 construct: expressed in transfected cells; host or cells: HEK293
Description: For NanoBRET protein-protein interaction assay, NanoBRET Nano-Glo Detection System (N1662, Promega) was used according to the manufacturer's instruction. In brief, 220,000 HEK293 cells/ml was seeded in a 6-well plate. After 6 h, N-terminal nanoLuc NUDT5 and Halo-tag CRBN were then transfected into the cells using Fugene HD transfection reagent (E2312, Promega). The transfected HEK293 (220,000 cells/ml) were then replated onto a 384-well plate containing compounds. After 4 h incubation, NanoLuc substrate was added into each well and the signals were measured by PHERAstar Microplate Reader.
Compounds were dispensed in the 384-well plates by using Echo Acoustic Dispenser.

MTHFD1^K56R cells = experiment: growth of MTHFD1^K56R cells in adenosine-containing media; conditions: 72 h
Description: HAP1 (KBM7-derived, Horizon Discovery, C859), and HAP1 MTHFD1^KO, MTHFD1^K56R, and MTHFD1^K386E cell lines were cultured in Iscove's Modified Dulbecco's Medium (IMDM, Sigma), supplemented with 10% Fetal Bovine Serum (FBS, Sigma) and 1% Penicillin/Streptomycin (P/S, Sigma).
MTHFD1^KO cells in dialyzed FBS media were treated with a single nucleotide or folic acid metabolite for 72 hours. Cells were then stained with Hoechst, imaged, and counted using an Operetta (Perkin Elmer). For the AMPK activator studies, cells were stained with Hoechst, imaged, and counted using an Opera (Perkin Elmer). Similarly, MTHFD1^K56R cells in dialyzed FBS media were treated with adenosine for 72 hours. Cells were then stained with Hoechst, imaged, and counted using an Operetta (Perkin Elmer).

NUDT5-PPAT interaction = biological target: T2, NUDT5-PPAT interaction (Homo sapiens, UniProt Q9UKK9); experiment: immunoprecipitation of endogenous PPAT; conditions: HAP1 cells, 100 nM, 20 h
T2 construct: endogenous in cells; host or cells: HAP1 WT
Description: For detecting TH5427 interactors and the PPAT-NUDT5 interaction, protein samples were prepared using RIPA buffer containing benzonase (E1014-25KU, Sigma-Aldrich). Protein concentration was measured by DC assay (U.S. Pat. Nos. 5,000,113, 5,000,114, 5,000,115, Biorad). 30 μg protein out of each sample was separated on a SDS-page gel (3450125, Biorad) and transferred to a nitrocellulose membrane (10600014, Sigma-Aldrich) at 0.4 A for 1 h. The membranes were blocked by 5% BLOT-QuickBlocker in PBS-T at room temperature for 1 h (786-011, Bioscience) and incubated with primary antibodies at 4° C. overnight. Then, fluorophor conjugated secondary antibodies diluted 1:500 in 2×BLOT-QuickBlocker in PBS-T were added onto the membrane for 1 h at room temperature. Protein bands were visualized by a Odyssey® DLx Imaging System (Licor). The following primary antibodies were used: NUDT5 (ab129172, Abeam, 1:1000, anti-rabbit) or NUDT5 (sc-398644, 1:200, anti-mouse), β-actin (sc-69879, Santa Cruz Biotechnology, 1:200) and PPAT (15401-1-AP, Proteintech, 1:1000). The following secondary antibodies were used: Alexa Fluor 750 goat anti-mouse IgG (A21037, Life technologies) and goat anti-rabbit IgG (H+L) cross-adsorbed secondary Antibody, Alexa Fluor 647 (A21244, Life technologies).
HAP-1 WT cells were treated with 100 nM TH5427, dNUDT5 or DMSO for 20 h in a 100 mm dish. […]

NUDT5 [1] = biological target: T3, NUDT5 (Homo sapiens, UniProt Q9UKK9); experiment: NUDT5 degradation by Western blot in HEK293 cells; set-up: endogenous in cells; host or cells: HEK293 (also CRBN knock-out HEK293 for A13)
Description: For Western blots, proteins were separated on polyacrylamide gels with SDS running buffer (50 mM Tris, 380 mM Glycine, 7 mM SDS) and transferred to PVDF membranes. All membranes were then blocked with blocking buffer (5% w/v milk powder, BioRad) in TBST (50 mM Tris (tris(hydroxymethylaminomethane), 150 mM NaCl, 0.05% (v/v) Tween 20, adjusted to pH 7.6) Proteins were probed with antibodies against phospho-AMPK (50081S, 1:2000, Cell Signaling Technologies), AMPK (5832S, 1:2000, Cell Signaling Technologies), PML (ab179466, 1:1000, abeam), PARP8 (NBP213733, 1:1000, Novus Biologicals), ATF2/7 (82870, 1:1000, Cell Signaling Technologies), alpha-Tubulin (ab7291, 1:1000, Abeam), phospho-UBTF (ab182583, 1:1000, abeam), UBTF (HPA006385, 1:1000, Sigma), RBM38 (AV40862, 1:1000, Sigma), or NUDT5 (ab129172, 1:1000, abeam), detected by HRP (horse-radish peroxidase) conjugated donkey anti-rabbit IgG antibody (Pierce) or donkey anti-mouse antibody IgG antibody (Pierce) and visualized with Clarity ECL Western Blotting substrate (BioRad), according to provided protocol.

NUDT5 [2] = biological target: T3, NUDT5; experiment: CRBN knock-out experiment, NUDT5 degradation; set-up: endogenous in cells; host or cells: HEK293 (also CRBN knock-out HEK293 for A13); conditions: CRBN knock-out HEK293 cells, 20 h

Cn1c(=O)c2c(nc(N3CCN(C(=O)N4CCC(CN5CCN(c6ccc7c(c6)C(=O)N(C6CCC(=O)NC6=O)C7=O)CC5)CC4)CC3)n2Cc2nnc(-c3ccc(Cl)c(Cl)c3)o2)n(C)c1=O (stereo not drawn) [dNUDT5, 7-((5-(3,4-dichlorophenyl)-1,3,4-oxadiazol-2-yl)methyl)-8-(4-(4-((4-(2-(2,6-dioxopiperidin-3-yl)-1,3-dioxoisoindolin-5-yl)piperazin-1-yl)methyl)piperidine-1-carbonyl)piperazin-l-yl)-1,3-dimethyl-3,7-dihydro-1H-purine-2,6-dione]
ternary complex formation between NUDT5 and CRBN (NUDT5-CRBN interaction): able to induce proficient ternary complex formation
concentration of maximum rescue of cell viability (MTHFD1^K56R cells; adenosine supplementation): 100 nM
effect on adenosine toxicity / viability (MTHFD1^K56R cells; adenosine-containing media): prevented adenosine toxicity
amount of NUDT5 interacting with PPAT (NUDT5-PPAT interaction): strongly reduced the amount of NUDT5 interacting with PPAT
NUDT5 degradation at 100 nM, 20 h (%) (NUDT5 [1]; 100 nM, 20 h): 96%
concentration beyond which degradation efficiency declines (hook effect) (NUDT5 [1]; HEK293 and HAP-1 cells): > 300 nM
DC50 (NUDT5 [1]; HEK293 cells): 500 pM
dependence of NUDT5 degradation (rescue experiments) (NUDT5 [1]; competition with TH5427, MLN4924, MG132, HEK293 cells): E3 ligase- and proteasome-dependent
dependence of degradation on E3 ligase (NUDT5 [2]): E3-ligase-dependant
